Reference: ChEMBL document CHEMBL5053510, “Discovery of AS-1763: A Potent, Selective, Noncovalent, and Orally Available Inhibitor of Bruton's Tyrosine Kinase” (J Med Chem, 2021)
The source made the active and inactive calls. No cut-off for these calls is given here.

Columns and labels:
[1] = target: Tyrosine-protein kinase Tec (Homo sapiens) (UniProt P42680); assay: Inhibition of human TEC (359- 631) expressed in baculovirus expression system at 0.3 uM by mobility shift assay
[2] = system: Proto-oncogene tyrosine-protein kinase receptor Ret (Homo sapiens), P07949 [S891A]; assay: Inhibition of human RET S891A mutant (658 - 1114) expressed in baculovirus expression system at 0.3 uM by mobility shift assay
Proto-oncogene tyrosine-protein kinase receptor Ret (Homo sapiens), P07949 [S891A], sequence (P07949 whole entry S891A): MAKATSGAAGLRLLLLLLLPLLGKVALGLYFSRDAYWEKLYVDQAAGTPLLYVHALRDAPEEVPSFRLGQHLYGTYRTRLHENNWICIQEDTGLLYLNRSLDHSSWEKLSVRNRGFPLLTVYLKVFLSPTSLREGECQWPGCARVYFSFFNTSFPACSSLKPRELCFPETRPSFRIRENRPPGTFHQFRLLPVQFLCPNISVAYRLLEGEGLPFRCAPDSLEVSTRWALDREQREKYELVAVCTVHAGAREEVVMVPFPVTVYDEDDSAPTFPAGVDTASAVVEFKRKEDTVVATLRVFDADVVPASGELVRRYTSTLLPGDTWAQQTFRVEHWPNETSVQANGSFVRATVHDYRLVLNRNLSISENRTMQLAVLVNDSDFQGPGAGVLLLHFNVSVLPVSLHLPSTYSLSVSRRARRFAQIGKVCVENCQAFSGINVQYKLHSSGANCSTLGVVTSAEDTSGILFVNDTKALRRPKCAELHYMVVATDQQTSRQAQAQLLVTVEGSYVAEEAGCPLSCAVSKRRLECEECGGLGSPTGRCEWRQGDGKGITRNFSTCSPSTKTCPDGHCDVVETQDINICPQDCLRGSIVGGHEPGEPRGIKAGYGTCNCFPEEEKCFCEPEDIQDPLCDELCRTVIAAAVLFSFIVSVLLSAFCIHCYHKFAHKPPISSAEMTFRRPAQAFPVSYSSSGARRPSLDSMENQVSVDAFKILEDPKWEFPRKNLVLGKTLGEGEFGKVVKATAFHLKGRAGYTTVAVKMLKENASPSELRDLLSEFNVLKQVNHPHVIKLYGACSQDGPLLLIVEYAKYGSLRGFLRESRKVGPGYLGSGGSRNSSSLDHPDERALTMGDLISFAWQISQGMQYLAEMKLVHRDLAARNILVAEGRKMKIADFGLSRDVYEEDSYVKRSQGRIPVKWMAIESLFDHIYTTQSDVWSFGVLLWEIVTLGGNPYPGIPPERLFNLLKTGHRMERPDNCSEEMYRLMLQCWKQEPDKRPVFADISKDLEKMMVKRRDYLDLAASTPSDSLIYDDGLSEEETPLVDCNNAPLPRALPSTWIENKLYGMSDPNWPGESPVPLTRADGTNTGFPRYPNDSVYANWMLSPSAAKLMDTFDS

[3] = MRT (0 to last) in dog at 1 mg/kg, iv; type: ADME, organism-based, Canis lupus familiaris; details: in vivo
[4] = MRT (0 to last) in dog at 5 mg/kg, po; type: ADME, organism-based, Canis lupus familiaris; details: in vivo
[5] = MRT (0 to last) in rat at 15 mg/kg, po; type: ADME, organism-based; details: in vivo
[6] = MRT (0 to last) in rat at 2 mg/kg, iv; type: ADME, organism-based; details: in vivo
[7] = MRT (0 to last) in mouse at 2 mg/kg, iv; type: ADME, organism-based; details: in vivo
[8] = target: Muscle, skeletal receptor tyrosine-protein kinase (Homo sapiens) (UniProt O15146); assay: Inhibition of human MUSK expressed in baculovirus expression system at 0.3 uM by mobility shift assay
Muscle, skeletal receptor tyrosine-protein kinase (Homo sapiens), sequence (O15146 whole entry, the tested form may be a part): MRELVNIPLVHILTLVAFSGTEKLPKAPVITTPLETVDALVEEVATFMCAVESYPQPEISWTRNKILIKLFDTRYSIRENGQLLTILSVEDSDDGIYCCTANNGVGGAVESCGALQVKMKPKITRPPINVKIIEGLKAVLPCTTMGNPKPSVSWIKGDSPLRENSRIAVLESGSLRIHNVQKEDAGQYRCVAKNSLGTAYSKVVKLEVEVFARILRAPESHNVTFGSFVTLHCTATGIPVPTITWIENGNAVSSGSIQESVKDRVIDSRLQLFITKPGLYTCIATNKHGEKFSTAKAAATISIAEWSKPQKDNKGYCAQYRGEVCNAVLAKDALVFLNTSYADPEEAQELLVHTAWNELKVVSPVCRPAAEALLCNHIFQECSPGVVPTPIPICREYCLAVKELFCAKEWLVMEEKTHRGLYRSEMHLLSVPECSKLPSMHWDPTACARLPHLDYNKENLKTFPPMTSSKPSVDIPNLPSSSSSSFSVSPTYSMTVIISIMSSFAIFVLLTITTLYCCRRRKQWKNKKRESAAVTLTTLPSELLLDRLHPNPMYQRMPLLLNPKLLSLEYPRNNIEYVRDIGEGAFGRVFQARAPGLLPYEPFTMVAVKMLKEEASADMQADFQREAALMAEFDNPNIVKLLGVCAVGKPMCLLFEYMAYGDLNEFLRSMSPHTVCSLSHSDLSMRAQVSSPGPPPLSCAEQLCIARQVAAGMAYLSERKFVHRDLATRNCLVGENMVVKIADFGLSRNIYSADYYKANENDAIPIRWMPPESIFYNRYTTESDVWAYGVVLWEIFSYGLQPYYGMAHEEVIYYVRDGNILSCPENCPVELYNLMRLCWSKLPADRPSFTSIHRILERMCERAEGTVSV

[9] = target: Epithelial discoidin domain-containing receptor 1 (Homo sapiens, UniProt Q08345); assay: Inhibition of human DDR1 (444 - 876 residues) expressed in baculovirus expression system at 0.3 uM by mobility shift assay
[10] = system: Tyrosine-protein kinase BTK (Homo sapiens), Q06187 [C481S]; assay: Inhibition of human full-length BTK C481S mutant (2 to 659 residues) expressed in baculovirus expression system at 0.3 uM by mobility shift assay
Tyrosine-protein kinase BTK (Homo sapiens), Q06187 [C481S], sequence (Q06187 whole entry C481S, the tested form may be a part): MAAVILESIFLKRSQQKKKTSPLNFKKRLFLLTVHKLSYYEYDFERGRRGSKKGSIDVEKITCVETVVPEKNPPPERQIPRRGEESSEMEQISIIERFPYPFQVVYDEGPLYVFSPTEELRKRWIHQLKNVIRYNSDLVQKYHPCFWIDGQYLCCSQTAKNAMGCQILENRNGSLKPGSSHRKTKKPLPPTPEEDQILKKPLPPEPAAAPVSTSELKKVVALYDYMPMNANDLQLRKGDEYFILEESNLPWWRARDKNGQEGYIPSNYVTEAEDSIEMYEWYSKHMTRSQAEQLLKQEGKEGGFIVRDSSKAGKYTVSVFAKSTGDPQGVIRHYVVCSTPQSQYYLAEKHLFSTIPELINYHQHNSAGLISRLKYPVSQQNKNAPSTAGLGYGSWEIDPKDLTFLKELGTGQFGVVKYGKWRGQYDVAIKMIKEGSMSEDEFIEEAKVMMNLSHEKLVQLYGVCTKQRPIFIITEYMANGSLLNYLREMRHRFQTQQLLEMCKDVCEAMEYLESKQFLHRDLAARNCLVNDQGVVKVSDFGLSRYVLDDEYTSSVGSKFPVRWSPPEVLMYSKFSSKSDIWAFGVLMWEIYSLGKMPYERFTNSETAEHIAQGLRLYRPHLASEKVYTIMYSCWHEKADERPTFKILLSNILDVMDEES

[11] = target: T1, Tyrosine-protein kinase BTK (Homo sapiens, UniProt Q06187); assay: Inhibition of human full-length BTK (2 to 659 residues) expressed in baculovirus expression system at 0.3 uM by mobility shift assay
T1 sequence (Q06187 whole entry, the tested form may be a part): as the sequence (Q06187 whole entry C481S, the tested form may be a part) above, with S481C counted along it

[12] = Apparent permeability of the compound in human Caco-2 cells; type: ADME, cell-based
[13] = target: Proto-oncogene tyrosine-protein kinase Src (Homo sapiens, UniProt P12931); assay: Inhibition of human full length SRC expressed in baculovirus expression system by mobility shift assay
Proto-oncogene tyrosine-protein kinase Src, sequence (P12931 2-536 limits assumed): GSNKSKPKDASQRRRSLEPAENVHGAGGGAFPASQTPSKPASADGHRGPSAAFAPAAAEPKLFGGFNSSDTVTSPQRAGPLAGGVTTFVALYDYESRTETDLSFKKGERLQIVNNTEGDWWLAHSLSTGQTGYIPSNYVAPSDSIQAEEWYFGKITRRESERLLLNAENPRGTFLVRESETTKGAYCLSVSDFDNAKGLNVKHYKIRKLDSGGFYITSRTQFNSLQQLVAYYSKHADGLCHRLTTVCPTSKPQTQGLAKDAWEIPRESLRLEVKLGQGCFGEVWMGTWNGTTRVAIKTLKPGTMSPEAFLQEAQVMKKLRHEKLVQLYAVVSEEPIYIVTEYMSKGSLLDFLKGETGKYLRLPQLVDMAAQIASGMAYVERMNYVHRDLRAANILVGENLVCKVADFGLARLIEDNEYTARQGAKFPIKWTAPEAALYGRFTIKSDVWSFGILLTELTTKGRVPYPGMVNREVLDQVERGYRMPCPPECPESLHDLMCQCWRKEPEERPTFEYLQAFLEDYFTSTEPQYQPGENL

[14] = target: Tyrosine-protein kinase Tec (Homo sapiens, UniProt P42680); assay: Inhibition of human TEC (359 - 631 residues) expressed in baculovirus expression system by mobility shift assay
Tyrosine-protein kinase Tec, sequence (P42680 whole entry, the tested form may be a part): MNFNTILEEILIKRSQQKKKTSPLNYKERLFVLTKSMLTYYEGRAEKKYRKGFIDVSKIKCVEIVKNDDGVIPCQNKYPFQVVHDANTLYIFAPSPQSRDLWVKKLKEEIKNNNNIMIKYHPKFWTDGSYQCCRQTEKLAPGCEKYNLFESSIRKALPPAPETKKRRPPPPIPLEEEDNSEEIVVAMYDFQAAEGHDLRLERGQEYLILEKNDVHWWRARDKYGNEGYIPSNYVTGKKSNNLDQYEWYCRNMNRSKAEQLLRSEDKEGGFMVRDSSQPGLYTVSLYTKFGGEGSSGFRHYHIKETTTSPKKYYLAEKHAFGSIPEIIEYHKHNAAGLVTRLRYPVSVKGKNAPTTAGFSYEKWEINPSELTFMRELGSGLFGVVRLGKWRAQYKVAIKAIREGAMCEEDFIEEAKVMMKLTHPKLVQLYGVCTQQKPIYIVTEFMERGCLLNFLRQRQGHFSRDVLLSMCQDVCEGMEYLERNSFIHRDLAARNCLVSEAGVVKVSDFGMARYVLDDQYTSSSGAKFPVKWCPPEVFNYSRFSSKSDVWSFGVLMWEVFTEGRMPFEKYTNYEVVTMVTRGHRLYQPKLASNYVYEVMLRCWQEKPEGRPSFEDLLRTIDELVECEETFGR

[15] = target: T1, Tyrosine-protein kinase BTK; assay: Inhibition of wild type BTK (unknown origin) in presence of 1 mM ATP by microplate reader assay
OCI-Ly10 [16] = assay: Antiproliferative activity against human OCILY10 cells harboring BTK C481S mutant […] gene assessed as reduction in cell viability after 96 hrs; type: functional, cell-based; details: OCI-Ly10, 96 h
HEL 299 = assay: Cytotoxicity against human HEL 299 cells assessed as cell growth inhibition measured after 96 hrs; type: cell-based; details: HEL 299, 96 h
[17] = Plasma protein binding in human; type: ADME, cell-free; details: read-out: PPB (converted)
[18] = Plasma protein binding in mouse; type: ADME, cell-free; details: read-out: PPB (converted)
[19] = Plasma protein binding in dog; type: ADME, cell-free, Canis lupus familiaris; details: read-out: PPB (converted)
[20] = Metabolic stability in human hepatocytes assessed as Intrinsic clearance; type: ADME, cell-based, Hepatocyte
[21] = Metabolic stability in rat hepatocytes assessed as Intrinsic clearance; type: ADME, cell-based, Hepatocyte
[22] = Metabolic stability in dog hepatocytes assessed as Intrinsic clearance; type: ADME, cell-based, Canis lupus familiaris, Hepatocyte
Cytochrome P450 1A2 = Cytochrome P450 1A2 (Homo sapiens, UniProt P05177); assay: Inhibition of CYP1A2 (unknown origin); type: ADME
Cytochrome P450 1A2, sequence (P05177 whole entry): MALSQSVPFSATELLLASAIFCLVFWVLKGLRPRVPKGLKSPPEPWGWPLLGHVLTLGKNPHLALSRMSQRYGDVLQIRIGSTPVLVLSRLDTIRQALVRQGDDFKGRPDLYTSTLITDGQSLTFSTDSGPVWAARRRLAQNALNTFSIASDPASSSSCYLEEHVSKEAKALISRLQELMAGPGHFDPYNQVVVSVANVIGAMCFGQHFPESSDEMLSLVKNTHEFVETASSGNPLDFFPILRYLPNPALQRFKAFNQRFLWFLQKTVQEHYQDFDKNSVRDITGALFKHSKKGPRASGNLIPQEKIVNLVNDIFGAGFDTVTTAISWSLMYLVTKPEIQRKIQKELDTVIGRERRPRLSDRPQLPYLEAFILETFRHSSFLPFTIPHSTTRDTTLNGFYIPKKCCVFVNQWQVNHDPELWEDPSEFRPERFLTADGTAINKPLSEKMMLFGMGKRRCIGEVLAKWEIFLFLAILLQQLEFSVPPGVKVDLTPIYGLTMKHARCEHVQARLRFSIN

Cytochrome P450 2D6 = Cytochrome P450 2D6 (Homo sapiens, UniProt P10635); assay: Inhibition of […] (unknown origin); type: ADME
Cytochrome P450 3A4 = Cytochrome P450 3A4 (Homo sapiens, UniProt P08684); assay: Inhibition of CYP3A4 (unknown origin); type: ADME
Cytochrome P450 3A4, sequence (P08684 whole entry): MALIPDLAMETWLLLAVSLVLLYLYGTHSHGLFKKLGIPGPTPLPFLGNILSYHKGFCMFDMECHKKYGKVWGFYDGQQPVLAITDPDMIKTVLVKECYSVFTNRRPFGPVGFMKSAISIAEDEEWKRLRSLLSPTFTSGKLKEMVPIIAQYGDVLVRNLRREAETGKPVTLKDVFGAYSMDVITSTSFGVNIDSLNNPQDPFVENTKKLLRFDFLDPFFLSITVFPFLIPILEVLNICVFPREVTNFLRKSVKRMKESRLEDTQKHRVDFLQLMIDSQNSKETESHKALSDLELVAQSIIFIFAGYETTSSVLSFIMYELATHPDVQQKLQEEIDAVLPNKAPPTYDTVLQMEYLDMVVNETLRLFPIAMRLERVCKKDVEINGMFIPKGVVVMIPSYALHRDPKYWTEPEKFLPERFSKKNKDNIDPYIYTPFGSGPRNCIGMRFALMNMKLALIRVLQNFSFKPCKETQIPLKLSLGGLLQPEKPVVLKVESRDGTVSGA

Cytochrome P450 2C8 = Cytochrome P450 2C8 (Homo sapiens, UniProt P10632); assay: Inhibition of CYP2C8 (unknown origin); type: ADME
Cytochrome P450 2C9 = Cytochrome P450 2C9 (Homo sapiens, UniProt P11712); assay: Inhibition of CYP2C9 (unknown origin); type: ADME
[23] = target: Voltage-gated inwardly rectifying potassium channel KCNH2 (Homo sapiens, UniProt Q12809); assay: Inhibition of human ERG
[24] = Half life in rat at 15 mg/kg, po; type: ADME, organism-based; details: in vivo
[25] = Half life in dog at 5 mg/kg, po; type: ADME, organism-based, Canis lupus familiaris; details: in vivo
[26] = Half life in mouse at 2 mg/kg, iv; type: ADME, organism-based; details: in vivo
[27] = Half life in rat at 2 mg/kg, iv; type: ADME, organism-based; details: in vivo
[28] = Half life in dog at 1 mg/kg, iv; type: ADME, organism-based, Canis lupus familiaris; details: in vivo
[29] = Tmax in mouse at 15 mg/kg, po; type: ADME, organism-based; details: in vivo
[30] = Tmax in dog at 5 mg/kg, po; type: ADME, organism-based, Canis lupus familiaris; details: in vivo
[31] = Initial plasma concentration in mouse at 2 mg/kg, iv; type: ADME, organism-based
[32] = Initial plasma concentration in mouse at 15 mg/kg, po; type: ADME, organism-based; details: in vivo
[33] = Initial plasma concentration in rat at 2 mg/kg, iv; type: ADME, organism-based
[34] = Initial plasma concentration in rat at 15 mg/kg, po; type: ADME, organism-based; details: in vivo
[35] = Initial plasma concentration in dog at 1 mg/kg, iv; type: ADME, organism-based, Canis lupus familiaris
[36] = AUC (0 to last) in mouse at 15 mg/kg, po; type: ADME, organism-based; set-up: time 0 - last, dose 15 mg/kg, route po; details: in vivo
[37] = AUC (0 to last) in rat at 2 mg/kg, iv; type: ADME, organism-based; set-up: time 0 - last, dose 2 mg/kg, route iv; details: in vivo
[38] = AUC (0 to last) in rat at 15 mg/kg, po; type: ADME, organism-based; set-up: time 0 - last, dose 15 mg/kg, route po; details: in vivo
[39] = AUC (0 to last) in dog at 1 mg/kg, iv; type: ADME, organism-based, Canis lupus familiaris; set-up: time 0 - last, dose 1 mg/kg, route iv; details: in vivo
[40] = Volume of distribution in steady state rat at 2 mg/kg, iv; type: ADME, organism-based; details: in vivo, read-out: Vdss
[41] = Volume of distribution at steady state in dog at 2 mg/kg, iv; type: ADME, organism-based, Canis lupus familiaris; details: in vivo, read-out: Vdss
[42] = Clearence in mouse at 2 mg/kg, iv; type: ADME, organism-based; details: in vivo
[43] = Clearence in rat at 2 mg/kg, iv; type: ADME, organism-based; details: in vivo
[44] = Clearence in dog at 1 mg/kg, iv; type: ADME, organism-based, Canis lupus familiaris; details: in vivo
[45] = Oral bioavailability in mouse at 15 mg/kg; type: ADME, organism-based; details: in vivo
OCI-Ly10 [46] = assay: Antitumor activity against human OCILY10 cells xenografted in SCID mouse assessed as tumor growth inhibition at 20 mg/kg, po bid measured after 63 days; type: functional; details: OCI-Ly10, 1512 h, time 63 day, read-out: TGI
OCI-Ly10 [47] = assay: Antitumor activity against human OCILY10 cells in SCID mouse assessed as tumor growth inhibition at 60 mg/kg, po bid measured after 63 days; type: functional; details: OCI-Ly10, 1512 h, time 63 day, read-out: TGI
OCI-Ly10 [48] = assay: Antitumor activity against human ibrutinib-resistant BTK[C481S] knock-in OCILY10 cells in SCID mouse assessed as tumor growth inhibition at 60 mg/kg, po bid measured after 63 days; type: functional; details: OCI-Ly10, 1512 h, time 63 day, read-out: TGI
[49] = target: Tyrosine-protein kinase BTK (Mus musculus) (UniProt P35991); assay: In vivo inhibition of autophosphorylation of BTK at Y223 in mouse at 7.5 to 30 mg/kg, po measured up to 8 hrs by Western blot analysis; type: functional, organism-based; details: dose 7.5-30 mg/kg

Tyrosine-protein kinase Tec (Homo sapiens), sequence (P42680 whole entry): as the sequence (P42680 whole entry, the tested form may be a part) above

Work on `Nc1nc(-c2cccc(-n3ccc4cc(C5CC5)cc(F)c4c3=O)c2CO)c2cc(C3=CCN(C4COC4)CC3)[nH]c2n1` [MILREBRUTINIB] yielded an inhibition [1] of 99.6%, an inhibition [2] of 67% and an MRT last [3] of 1.23 h. The MRT last [4] was 2.3 h, the MRT last [5] was 4.03 h and the MRT last [6] was 2.92 h. It also gave an MRT last [7] of 1.36 h, an inhibition [8] of 53.2% and an inhibition [9] of 53.4%. It also gave an inhibition [10] of 99.8%, an inhibition [11] of 99.4% and a Papp [12] of 1.42 ×10⁻⁶ cm/s. The IC50 [13] was 0.291 µM, the IC50 [14] was 0.00134 µM and the IC50 [15] was 0.00372 µM. For the same compound, the IC50 (OCI-Ly10 [16]) was 0.0204 µM, the IC50 (HEL 299) was 6.37 µM and the fraction unbound [17] was 0.02. It also gave a fraction unbound [18] of 0.008, a fraction unbound [19] of 0.015 and a CLH [20] of 0.76 mL/min/g. The CLH [21] was 2.04 mL/min/g, the CLH [22] was 1.28 mL/min/g and the IC50 (Cytochrome P450 1A2) was greater than 10 µM. It also gave an IC50 (Cytochrome P450 2D6) greater than 10 µM, an IC50 (Cytochrome P450 3A4) greater than 10 µM and an IC50 (Cytochrome P450 2C8) of 3.17 µM. It also gave an IC50 (Cytochrome P450 2C9) of 5.38 µM, an IC50 [23] of 8.54 µM and a half-life [24] of 3.56 h. For the same compound, the half-life [25] was 1.9 h, the half-life [26] was 1.12 h and the half-life [27] was 2.65 h. The half-life [28] was 1.29 h, the Tmax [29] was 2 h and the Tmax [30] was 0.833 h. It also gave a C0 [31] of 972 ng/mL, a C0 [32] of 1717 ng/mL and a C0 [33] of 874 ng/mL. It also gave a C0 [34] of 418 ng/mL, a C0 [35] of 1280 ng/mL and an AUC(0-t) [36] of 8060 ng·h/mL. For the same compound, the AUC(0-t) [37] was 1650 ng·h/mL, the AUC(0-t) [38] was 1870 ng·h/mL and the AUC(0-t) [39] was 734 ng·h/mL. It also gave a Vd [40] of 3.64 L/kg, a Vd [41] of 1.77 L/kg and a clearance [42] of 18.8 mL/min/kg. For the same compound, the clearance [43] was 20.3 mL/min/kg, the clearance [44] was 22.7 mL/min/kg and the bioavailability [45] was 60.8%. It also gave an inhibition in vivo at 20 mg/kg (OCI-Ly10 [46]) of 81.6%, an inhibition in vivo at 60 mg/kg (OCI-Ly10 [47]) of 112% and an inhibition in vivo at 60 mg/kg (OCI-Ly10 [48]) of 73%. For the same compound, the inhibition [49] was “Active”.
